Experimental data taken from article PMC10045663, “Synthesis, In Vitro Biological Evaluation of Antiproliferative and Neuroprotective Effects and In Silico Studies of Novel 16E-Arylidene-5α,6α-epoxyepiandrosterone Derivatives” (Biomedicines, 2023).
“Also recorded” adds a separate entry of the source.

Tests used:
[1] = tested on: T47-D cells (breast cancer); parameters: method as in PMID 23635011; details: MTT assay, read-out: IC50 against T47-D cells; cited from earlier work
[2] = tested on: PNT1A (normal prostate cells); assay: MTT cell proliferation assay, PNT1A cells; type: cell-based; details: 72 h, non-tumoral cells, read-out: Estimated IC50, PNT1A
Experimental: (§1) LNCaP, PC-3, MCF-7, PNT1A, N27, and NHDF cells were obtained from the American Type Culture Collection (ATCC; Manassas, VA, USA) and were cultured in 75 cm^2 culture flasks at 37 °C in a humidified air incubator with 5% CO2. LNCaP, PC-3, PNT1A, and N27 cells, respectively, were cultured in RPMI 1640 medium (Sigma-Aldrich, Inc. St. Louis, MO, USA) with 10% fetal bovine serum (FBS; Sigma-Aldrich, Inc. St. Louis, MO, USA) and 1% of the antibiotic mixture of 10,000 U/mL penicillin G and […] streptomycin (Sp, Sigma-Aldrich, Inc. St. Louis, MO, USA). MCF-7 cells were cultured in DMEM medium (Sigma-Aldrich, Inc. St. Louis, MO, USA) supplemented with 10% fetal bovine serum (FBS; Sigma-Aldrich, Inc. St. Louis, MO, USA) and 1% antibiotic/antimycotic (10,000 U/mL penicillin G, […] streptomycin, and 25 µg/mL amphotericin B: Ab, Sigma-Aldrich, Inc. St. Louis, MO, USA). Finally, NHDF cells were cultured in RPMI 1640 medium supplemented with 10% FBS, 2 mM L-glutamine, 10 mM HEPES, 1 mM sodium pyruvate, and 1% of the antibiotic/antimycotic Ab, and these cells were used in passages 10th to 14th. For all cell types, the medium was renewed every 2 days until cells nearly reached the confluence state. When cells reach approximately 90–95% confluence, they are gently detached by trypsinization (trypsin-EDTA solution: 0.125 g/L of trypsin and 0.02 g/L of EDTA). Before each experiment, viable cells were counted in a Neubauer chamber by a trypan-blue exclusion assay and adequately diluted in the appropriate complete cell culture medium.
(§2) All tested compounds were dissolved in dimethyl sulfoxide (DMSO; Sigma-Aldrich, Inc. St. Louis, MO, USA) at a concentration of 10 mM and stored at 4 °C. From the mother-solutions, the diluted solutions of the compounds, in different concentrations, were prepared in the respective complete culture medium before each experiment.
(§3) After reaching a confluence state, cells were trypsinized and counted by the trypan-blue exclusion assay and then seeded with an initial density of 2 × 10^4 cells/mL in 96-well culture plates (Nunc, Apogent, Denmark) and left to adhere and grow for 48 h. Subsequently, the medium was removed, and the cells were treated with compound solutions (10 and 50 µM for preliminary studies and 0.01, 0.1, 1, 10, 50, and 100 µM for concentration-response studies) in complete culture medium for 72 h. 5-Fluorouracil (5-FU) was used as a positive control, and untreated cells were used as the negative control. Compounds leading to cell proliferation relative to control clearly below 50%, at 10 µM, or clearly below 25%, at 50 µM, in the screening studies were selected to concentration-response studies in tumoral cell lines. Each experiment was performed in quadruplicate and independently at least two times. The in vitro antiproliferative effects were evaluated by the MTT assay (Sigma-Aldrich, Inc. St. Louis, MO, USA). After the incubation period, the medium was removed, and 100 µL of phosphate buffer saline (PBS, NaCl 137 mM; KCl 2.7 mM; Na2HPO4 10 mM; and KH2PO4 1.8 mM in deionized water with a pH adjusted to 7.4) were used to wash the cells. Then, 100 µL of the MTT solution (5 mg/mL) was prepared in the appropriate serum-free medium and added to each well, followed by incubation for 4 h at 37 °C. Hereafter, the MTT containing medium was removed, and the formazan crystals were dissolved in DMSO. Then, the absorbance was measured at 570 nm using a xMarkTM microplate spectrophotometer from BIO-RAD Laboratories. Cell viability values were expressed as percentages relative to the negative control.

N27 cells [3] = assay: Neuroprotection against 6-OHDA-induced toxicity (MTT); type: cell-based, rat; details: 24 h; for protection against 6-OHDA-induced neurotoxicity: 10 and 50 µM together with 50 µM 6-OHDA
Experimental: (§4) The immortalized rat mesencephalic dopaminergic cell line (N27 cells; a kind gift from Dr. Yoon-Seong Kim, Burnett School of Biomedical Sciences, University of Central Florida) was grown in Roswell Park Memorial Institute (RPMI) 1640 medium (Sigma-Aldrich) containing 2 g/L sodium bicarbonate, 10% fetal bovine serum (FBS; Millipore), and 1 mL/L of penicillin/streptomycin (GIBCO) in a humidified atmosphere of 5% CO2 at 37 °C. Cells were plated at a density of 0.31 × 10^5 cells per cm^2 in 96-well culture plates. In the MTT assay, N27 cells were incubated in the presence of several compounds with 50 μM of 6-OHDA. To assess cell viability, MTT reduction was performed as previously described (Section 2.3) with some modifications. Briefly, after 24 h of cell treatments, 0.5 mg/mL of MTT was added to cells for 4 h at 37 °C. Then, the resultant precipitate was dissolved in 10% SDS and quantified at a wavelength of 570 nm.

N27 cells [4] = assay: N27 cell viability after 24 h (MTT), substance alone; type: cell-based, rat; details: for effect on N27 cell viability: 10 µM alone; for fold-increase in cell viability compared to 10 µM of the respective compound / fold-increase in cell viability compared to the control: 50 µM alone
Experimental: as §4, with “In the MTT assay, N27 cells were incubated in the presence of several compounds with 50 μM of 6-OHDA.” left out

[5] = tested on: N27 (rat dopaminergic neuronal cells); assay: MTT cell proliferation assay, N27 cells; type: cell-based; details: 72 h, non-tumoral cells, read-out: Estimated IC50, N27
Experimental: as §1, §2, §3

[6] = tested on: MCF-7 cells (estrogen-responsive breast cancer cells); assay: MTT cell proliferation assay, MCF-7 cells; type: cell-based; details: MTT, 72 h, tumoral cells; read-out: Estimated IC50, MCF-7
Experimental: as §1, §2, §3

[7] = tested on: NHDF cells (normal human dermal fibroblasts); assay: MTT cell proliferation assay, NHDF cells; type: cell-based; details: 72 h, non-tumoral cells, read-out: Estimated IC50, NHDF
Experimental: as §1, §2, §3

[8] = tested on: PC-3 cells (androgen-independent prostatic cancer); assay: MTT cell proliferation assay, PC-3 cells; type: cell-based; details: PC-3, 50 µM, 72 h
Experimental: as §1, §2, §3

[9] = tested on: all cell lines (NHDF, PNT1A, N27, LNCaP, PC-3, MCF-7); assay: MTT preliminary screening, all cell lines taken together; type: cell-based; details: 50 µM, 72 h
Experimental: as §1, §2, §3

[10] = tested on: LNCaP cells (androgen-dependent prostatic cancer); assay: MTT cell proliferation assay, LNCaP cells; type: cell-based; details: 72 h
Experimental: as §1, §2, §3

In the case of `CC12CCC3C(CC=C4CC(O)CCC43C)C1C/C(=C\c1ccc([N+](=O)[O-])cc1)C2=O` (stereo not drawn) [Compound 4, (E)-16-(4-Nitrobenzylidene)-3-hydroxy-10,13-dimethyl-1,3,4,7,8,9,10,11,12,13,15,16-dodecahydro-2H-cyclopenta[α]phenanthren-17(14H)-one], the IC50 [1] is given as greater than 100 µM.

In the case of `CC12CCC3C(CC=C4CC(O)CCC43C)C1C/C(=C\c1ccc(Cl)cc1Cl)C2=O` (stereo not drawn) [Compound 9, (E)-16-(2,4-Dichlorobenzylidene)-3-hydroxy-10,13-dimethyl-1,3,4,7,8,9,10,11,12,13,15,16-dodecahydro-2H-cyclopenta[α]phenanthren-17(14H)-one], the IC50 [1] is listed as greater than 100 µM.

In the case of `CC12CCC3C(CC4OC45CC(O)CCC35C)C1CC(=Cc1ccc([N+](=O)[O-])cc1)C2=O` (stereo not drawn) [Compound 17, (E)-16-(4-Nitrobenzylidene)-3-hydroxy-5α ,6α -epoxy-10,13-dimethyl-1,3,4,7,8,9,10,11,12,13,15,16-dodecahydro-2H-cyclopenta[α ]phenanthren-17(14H)-one], the IC50 [2] is reported as greater than 100 µM, the “protection against 6-OHDA-induced neurotoxicity” value (“protection” below) (N27 cells [3]) is reported as “did not counteract; also recorded: no significant neuroprotection” and the “effect on N27 cell viability” value (N27 cells [4]) is reported as “did not affect cell viability”. The “fold-increase in cell viability compared to 10 µM of the respective compound” value (N27 cells [4]) was 1.59 fold, the “fold-increase in cell viability compared to the control” value (N27 cells [4]) was 1.53 fold and the IC50 [5] was greater than 100 µM. It also gave an IC50 [6] of 20.8 µM and an IC50 [7] of 32.3 µM.

With `C[C@]12CC[C@H]3[C@@H](C[C@@H]4O[C@@]45C[C@@H](O)CC[C@]35C)[C@@H]1C/C(=C\c1ccco1)C2=O` [Compound 20, (E)-16-(Furan-2-ylmethylene)-3-hydroxy-5α ,6α -epoxy-10,13-dimethyl-1,3,4,7,8,9,10,11,12,13,15,16-dodecahydro-2H-cyclopenta[α ]phenanthren-17(14H)-one] the IC50 [2] was 56.6 µM, the “protection” value (N27 cells [3]) was “did not counteract; also recorded: no significant neuroprotection” and the “effect on N27 cell viability” value (N27 cells [4]) was “did not affect cell viability”. The IC50 [5] was 64.5 µM, the “decrease on cell proliferation relative to the control” value [8] was “higher than 75%” and the IC50 [7] was 50 µM.

For `CC12CCC3C(CC4OC45CC(O)CCC35C)C1CC(=Cc1ccc(Cl)o1)C2=O` (stereo not drawn) [Compound 27, (E)-16-[(5-Chlorofuran-2-yl)methylene]-3-hydroxy-5α ,6α -epoxy-10,13-dimethyl-1,3,4,7,8,9,10,11,12,13,15,16-dodecahydro-2H-cyclopenta[α ]phenanthren-17(14H)-one], the IC50 [2] was 19.5 µM, the “fold-decrease in cell viability compared to 6-OHDA alone” value (N27 cells [3]; 50 µM together with 50 µM 6-OHDA) was 0.9 fold and the “protection” value (N27 cells [3]) was “did not counteract; also recorded: no significant neuroprotection”. The “effect on N27 cell viability” value (N27 cells [4]) was “did not affect cell viability”, the “fold-increase in cell viability compared to 10 µM of the respective compound” value (N27 cells [4]) was 1.41 fold and the “fold-increase in cell viability compared to the control” value (N27 cells [4]) was 1.25 fold. For the same compound, the IC50 [5] was 42.4 µM, the relative cell proliferation [9] was no more than 50% and the IC50 [6] was 56.9 µM. For the same compound, the “effect on LNCaP cell proliferation” value ([10]; LNCaP, 10 µM) was “no relevant effects”, the “decrease in LNCaP cell proliferation” value ([10]; LNCaP, 50 µM) was “higher than 75%” and the IC50 ([10]; MTT, tumoral cells, read-out: Estimated IC50, LNCaP) was 15.8 µM. The IC50 [7] was 18.4 µM.
